This is an account of results in US20160311817A1, “HETEROARYL SULTAM DERIVATIVES AS RORc MODULATORS” (Genentech, Inc., priority 2014, published 2016).

As a reminder, the pIC50 is the IC50 on a negative log10 scale, so that one unit is a factor of ten.

pIC50: −log10 of the molar value.

The assay concerns the target T1, RORc ligand binding domain (Homo sapiens, UniProt P51449).
T1 construct: host or cells: E. coli
T1 sequence (P51449 269-508 limits assumed): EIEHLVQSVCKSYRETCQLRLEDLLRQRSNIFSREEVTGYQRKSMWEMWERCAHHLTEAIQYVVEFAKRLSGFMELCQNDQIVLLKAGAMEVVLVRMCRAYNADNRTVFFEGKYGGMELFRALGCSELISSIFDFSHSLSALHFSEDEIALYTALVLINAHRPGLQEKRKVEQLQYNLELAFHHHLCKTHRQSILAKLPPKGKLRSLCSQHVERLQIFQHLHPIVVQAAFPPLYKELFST
The experiment in a line: In Vitro RORc Ligand Binding Assay. The settings on record: radioligand 25-[3H]hydroxycholesterol 6 nM; 0.6 ug/mL RORc receptor; 3 h at 25° C. As for the experimental part: In Vitro RORc Ligand Binding Assay
This assay was used to determine a compound's potency in inhibiting activity of RORc by determining, Kiapp, IC50, or percent inhibition values.
On day of the assay, 100 uL of 0.05% CHAPS (in deionized H2O) was added to all wells of the GFB Unifilter plate and allowed soak for 1 h. A wash buffer of 50 mM HEPES (pH 7.4), 150 mM NaCl, and 5 mM MgCl2 was prepared to wash the filter plate. To prepare an assay buffer, BSA was added to the wash buffer to reach 0.01% and DTT was added to reach 1 mM.
For IC50 mode, 10 mM compound stocks were serially diluted in DMSO with DMSO to give 20× required final concentration in DMSO (15 uL compound+30 uL DMSO). The 20× compound stocks were diluted in DMSO with Assay Buffer 4-fold to reach 5× the final test concentration in 25% DMSO (10 uL compound+30 uL Assay Buffer). Solutions were mixed by aspiration several times with a pipette set on 50 uL volume. For the assay, 10 uL of 5× compound stock solutions in 25% DMSO were added to the assay plate in duplicate.
For two point screening, 10 mM stock compound solutions were diluted in DMSO to obtain 200 uM (20× the high test concentration) and then diluted 10-fold further to reach 20 uM (20× the low test concentration). The 20× stocks were diluted 4-fold with Assay Buffer (10 uL compound+30 uL Assay Buffer) to reach 5× the test concentrations (50 uM and 5 uM) and 10 uL were added to two assay plates for the duplicate wells. With each concentration tested on 2 plates, each set of 80 compounds used 4 assay plates (1 uM and 10 uM, with n=2).
25-hydroxycholesterol (1 uM) was used to determine the level of NSB signal is prepared in DMSO as for compounds above, then diluted in Assay Buffer to give a final concentration of 5 uM. For 25-hydroxycholesterol in 25% DMSO/75% Assay Buffer; 10 uL per well was used for NSB samples. Wells for Total Binding and No Receptor sample determination contained 10 uL of 25% DMSO/75% Assay Buffer per well.
25-[^3H]hydroxycholesterol was dilute in Assay Buffer to obtain 15 nM and vortex to mix. Add 20 uL to all wells to reach 6 nM final in the assay.
Stock receptor solution was diluted in assay buffer to obtain 1.5 ug/mL in Assay Buffer. 20 uL was added to all wells. For No R samples, 20 uL Assay Buffer was substituted for receptor solution.
Assay plates were 96-well polypropylene V-bottom plates. 10 uL of 5× compound in 25% DMSO/75% Assay Buffer was added to Test wells. 10 uL of 25% DMSO/75% Assay Buffer was added to Total Binding or No Receptor wells. 10 uL of 5 uM 25-hydroxycholesterol in 25% DMSO/75% Assay Buffer was added to NSB wells. 20 uL of 15 nM 25-[^3H]hydroxycholesterol prepared in Assay Buffer was added to all wells. 20 uL of 1.5 ug/mL RORc receptor was added to wells (or […] Assay Buffer to No R wells). Following addition to the wells, the plates were incubated 3 h at 25° C.
Using a Packard Filtermate Harvester, the filter plate were washed 4 times following transfer of the incubated samples. Plates were dry-filtered completely (2 h at 50° C. or overnight at room temperature). 50 uL Microscint 0 was added to all wells and read on Topcount protocol Inverted.
Final concentrations were as follows: 50 mM HEPES buffer (pH 7.4); 150 mM NaCl; 1 mM DTT; 5 mM MgCl2, 0.01% BSA; 5% DMSO; 0.6 ug/mL RORc receptor; 6 nM 25-[^3H]hydroxycholesterol. For NSB wells, 1 uM 25-hydroxycholesterol was also present.
Molecule `CC(=O)N1CCN(c2ccc(CN3[C@@H](C)CCC(c4ncccn4)S3(=O)=O)c(F)c2)CC1` (single isomer, unassigned) [Compound 9, 1-{4-[3-Fluoro-4-(3-methyl-1,1-dioxo-6-pyrimidin-2-yl-[1,2]thiazinan-2-ylmethyl)-phenyl]-piperazin-1-yl}-ethanone] had a pIC50 of 6.10.

`C[C@H]1CCCS(=O)(=O)N1Cc1cc(F)c(N2C[C@@H]3C(n4cnnc4)[C@@H]3C2)cc1F` (stereo partly drawn) [Compound 22, (1S,5R,6S)-3-[2,5-Difluoro-4-((S)-3-methyl-1,1-dioxo-[1,2]thiazinan-2-ylmethyl)-phenyl]-6-[1,2,4]triazol-4-yl-3-aza-bicyclo [3.1.0]hexane] showed a pIC50 of 6.22.

As to `CC(=O)N1CCN(c2ccc(CN3[C@@H](C)CCC(c4cccnc4)S3(=O)=O)c(F)c2)CC1` (single isomer, unassigned) [Compound 14, 1-{4-[3-Fluoro-4-(3-methyl-1,1-dioxo-6-pyridin-3-yl-[1,2]thiazinan-2-ylmethyl)-phenyl]-piperazin-1-yl}-ethanone], the pIC50 is 6.06.

In turn, `CC(=O)N1CCN(c2ccc(CN3[C@@H](C)CCC(c4cccnc4)S3(=O)=O)c(F)c2)CC1` (single isomer, unassigned) [Compound 15, 1-{4-[3-Fluoro-4-(3-methyl-1,1-dioxo-6-pyridin-3-yl-[1,2]thiazinan-2-ylmethyl)-phenyl]-piperazin-1-yl}-ethanone] showed a pIC50 of 5.38.

As to `CC1CC[C@H](C)N(Cc2cc(F)c(N3C[C@@H]4C(n5cnnc5)[C@@H]4C3)cc2F)S1(=O)=O` (single isomer, unassigned) [Compound 5], the pIC50 was 7.13.

`CC(=O)N1CCN(c2ccc(CN3[C@@H](C)CCC(c4ccccn4)S3(=O)=O)c(F)c2)CC1` (single isomer, unassigned) [Compound 16, 1-{4-[3-Fluoro-4-(3-methyl-1,1-dioxo-6-pyridin-2-yl-[1,2]thiazinan-2-ylmethyl)-phenyl]-piperazin-1-yl}-ethanone] showed a pIC50 of 6.53.

For `CC(=O)N1CCN(c2ccc(CN3[C@@H](C)CCC(c4ccsc4)S3(=O)=O)c(F)c2)CC1` (single isomer, unassigned) [Compound 13, 1-{4-[3-Fluoro-4-(3-methyl-1,1-dioxo-6-thiophen-3-yl-[1,2]thiazinan-2-ylmethyl)-phenyl]-piperazin-1-yl}-ethanone], the pIC50 was 6.91.

`CC(=O)N1CCN(c2ccc(CN3[C@@H](C)CCC(c4ccsc4)S3(=O)=O)c(F)c2)CC1` (single isomer, unassigned) [Compound 12, 1-{4-[3-Fluoro-4-(3-methyl-1,1-dioxo-6-thiophen-3-yl-[1,2]thiazinan-2-ylmethyl)-phenyl]-piperazin-1-yl}-ethanone]: the pIC50 was 7.44.

Regarding `CC1CCC(C2CCCCC2)S(=O)(=O)N1Cc1cc(F)c(N2CC3C(C2)C3n2cnnc2)cc1F` (single isomer, unassigned) [Compound 2, 3-[4-(6-Cyclohexyl-3-methyl-1,1-dioxo-[1,2]thiazinan-2-ylmethyl)-2,5-difluoro-phenyl]-6-[1,2,4]triazol-4-yl-3-aza-bicyclo [3.1.0]hexane], the pIC50 was 7.15.

`CC(=O)N1CCN(c2ccc(CN3[C@@H](C)CCC(c4ccccn4)S3(=O)=O)c(F)c2)CC1` (single isomer, unassigned) [Compound 17] had a pIC50 of 6.08.

As for `CC1CCC(C2CCCCC2)S(=O)(=O)N1Cc1cc(F)c(N2CC3C(C2)C3n2cnnc2)cc1F` (single isomer, unassigned) [Compound 1, 3-[4-(6-Cyclohexyl-3-methyl-1,1-dioxo-[1,2]thiazinan-2-ylmethyl)-2,5-difluoro-phenyl]-6-[1,2,4]triazol-4-yl-3-aza-bicyclo [3.1.0]hexane], the pIC50 was 7.37.

Consider `CC(=O)N1CCN(c2ccc(CN3[C@@H](C)CCC(c4ncccn4)S3(=O)=O)c(F)c2)CC1` (single isomer, unassigned) [Compound 10, 1-{4-[3-Fluoro-4-(3-methyl-1,1-dioxo-6-pyrimidin-2-yl-[1,2]thiazinan-2-ylmethyl)-phenyl]-piperazin-1-yl}-ethanone], for which the pIC50 is 5.96.

`CC(=O)N1CCN(c2ccc(CN3[C@@H](C)CCC(c4ccncc4)S3(=O)=O)c(F)c2)CC1` (single isomer, unassigned) [Compound 8, 1-{4-[3-Fluoro-4-(3-methyl-1,1-dioxo-6-pyridin-4-yl-[1,2]thiazinan-2-ylmethyl)-phenyl]-piperazin-1-yl}-ethanone]: the negative-log IC50 (pIC50) is 6.00.

With `CC(=O)N1CCN(c2ccc(CN3[C@@H](C)CCC(c4cccs4)S3(=O)=O)c(F)c2)CC1` (single isomer, unassigned) [Compound 7, 1-{4-[3-Fluoro-4-(3-methyl-1,1-dioxo-6-thiophen-2-yl-[1,2]thiazinan-2-ylmethyl)-phenyl]-piperazin-1-yl}-ethanone], the pIC50 was 7.74.

Turning to `CC(=O)N1CCN(c2ccc(CN3[C@@H](C)CCC(c4ccncc4)S3(=O)=O)c(F)c2)CC1` (single isomer, unassigned) [Compound 11, 1-{4-[3-Fluoro-4-(3-methyl-1,1-dioxo-6-pyridin-4-yl-[1,2]thiazinan-2-ylmethyl)-phenyl]-piperazin-1-yl}-ethanone], the pIC50 was 5.66.

`CC1CC[C@H](C)N(Cc2cc(F)c(N3C[C@@H]4C(n5cnnc5)[C@@H]4C3)cc2F)S1(=O)=O` (single isomer, unassigned) [Compound 6] showed a negative-log IC50 (pIC50) of 6.23.
